Data reported in patent US11584744B2 (UNIVERSITY OF WASHINGTON, priority 2017, dated 2023).
pEC50, pIC50: −log10 of the molar value. In brackets after ≈: the same amount, converted by molar mass. Like-named read-outs stand apart in the source and are kept apart here.

Tests used:
MetRS (T. brucei) = molecular target: T1, MetRS (T. brucei) (Trypanosoma brucei brucei, UniProt Q38C91); test: MetRS (T. brucei) enzyme inhibition; type: biochemical
T1 sequence (Q38C91 1-773): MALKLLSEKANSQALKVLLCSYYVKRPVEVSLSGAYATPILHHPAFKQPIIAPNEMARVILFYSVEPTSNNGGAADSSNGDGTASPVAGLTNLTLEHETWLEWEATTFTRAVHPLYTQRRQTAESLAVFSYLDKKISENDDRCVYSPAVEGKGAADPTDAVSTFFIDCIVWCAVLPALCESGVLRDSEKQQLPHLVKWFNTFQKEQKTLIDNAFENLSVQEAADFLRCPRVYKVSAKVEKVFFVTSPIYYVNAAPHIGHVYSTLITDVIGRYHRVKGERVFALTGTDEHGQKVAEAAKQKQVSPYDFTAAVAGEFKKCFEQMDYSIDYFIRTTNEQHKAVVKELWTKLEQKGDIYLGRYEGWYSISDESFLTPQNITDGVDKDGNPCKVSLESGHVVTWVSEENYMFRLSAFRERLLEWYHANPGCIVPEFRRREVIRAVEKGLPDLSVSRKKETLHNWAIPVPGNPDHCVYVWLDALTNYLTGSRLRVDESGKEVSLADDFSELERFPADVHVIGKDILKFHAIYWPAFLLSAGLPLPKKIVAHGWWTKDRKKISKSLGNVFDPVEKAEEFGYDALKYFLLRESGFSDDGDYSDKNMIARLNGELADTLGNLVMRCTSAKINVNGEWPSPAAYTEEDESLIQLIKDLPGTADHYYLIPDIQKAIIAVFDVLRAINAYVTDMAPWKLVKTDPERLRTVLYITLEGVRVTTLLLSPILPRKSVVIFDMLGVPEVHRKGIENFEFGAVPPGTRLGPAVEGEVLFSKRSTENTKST

MetRS (C. parvum) = MetRS (C. parvum) (Cryptosporidium parvum, UniProt Q5CVN0); test: MetRS (C. parvum) enzyme inhibition; type: biochemical; details: read-out: (C) MetRS (C. parvum) IC50
T. brucei = T. brucei growth inhibition; type: cell-based, Trypanosoma brucei; details: Trypanosoma brucei; read-out: (D) T. brucei EC50
[1] = tested on: S. aureus MSSA (ATCC 29213); test: MIC susceptibility testing; type: cell-based, Staphylococcus aureus; details: S. aureus ATCC 29213; for MIC: Staphylococcus aureus, read-out: (F) S. aureus (ATCC 29213) MIC
Text: Media and culture conditions. Mueller Hinton broth (MHB), cation adjusted Mueller Hinton broth (CA-MHB), and Brain Heart Infusion broth (BHI) were purchased from Becton Dickinson (Franklin Lakes, N.J.). Tryptic soy agar (TSA) plates, TSA with 5% sheep blood plates, and CA-MHB with 3% laked horse blood were purchased from Remel (San Diego, Calif.). MHB was used to assay all Staphylococcus aureus strains. CA-MHB was used for Staphylococcus epidermidis, Enterococcus faecalis, Enterococcus faecium, Escherichia coli, and Pseudomonas aeruginosa. CA-MHB supplemented with 3% laked horse blood was used for Streptococcus pneumoniae and Streptococcus pyogenes. Staphylococcus, Enterococcus, Escherichia, and Pseudomonas strains were cultured at 37° C. with ambient air. Streptococcus strains were cultured in 37° C. with 5% CO2. Separate conditions for radiolabeled precursor uptake assays are described below.
Susceptibility testing: Minimum inhibitory concentration (MIC) determinations were performed in triplicate in 96-well round bottom microtiter plates (Corning, Corning N.Y.) as described by the Clinical and Laboratory Standards Institute (CLSI). Serial two-fold dilutions of compounds were added to plates in 50 μL volumes. An additional 50 μL of media containing bacterial cells (1×10^6 CFUs/mL) was then added to each well. Maximum DMSO concentrations were 0.5%. Plates were incubated at 37° C. for at least 18 h before reading the susceptibility result by optical absorbance (OD600) using a BioTek ELx800. The lowest concentration causing ≥90% growth inhibition compared to the untreated control was recorded as the MIC (and also corresponded to the visual MIC). MICs were measured at least twice and the higher value (if different) was recorded herein.

T. cruzi = T. cruzi growth inhibition; type: cell-based, Trypanosoma cruzi; details: read-out: (E) T. cruzi EC50

Chain of MetRS (C. parvum) (Q5CVN0 entry or part of it): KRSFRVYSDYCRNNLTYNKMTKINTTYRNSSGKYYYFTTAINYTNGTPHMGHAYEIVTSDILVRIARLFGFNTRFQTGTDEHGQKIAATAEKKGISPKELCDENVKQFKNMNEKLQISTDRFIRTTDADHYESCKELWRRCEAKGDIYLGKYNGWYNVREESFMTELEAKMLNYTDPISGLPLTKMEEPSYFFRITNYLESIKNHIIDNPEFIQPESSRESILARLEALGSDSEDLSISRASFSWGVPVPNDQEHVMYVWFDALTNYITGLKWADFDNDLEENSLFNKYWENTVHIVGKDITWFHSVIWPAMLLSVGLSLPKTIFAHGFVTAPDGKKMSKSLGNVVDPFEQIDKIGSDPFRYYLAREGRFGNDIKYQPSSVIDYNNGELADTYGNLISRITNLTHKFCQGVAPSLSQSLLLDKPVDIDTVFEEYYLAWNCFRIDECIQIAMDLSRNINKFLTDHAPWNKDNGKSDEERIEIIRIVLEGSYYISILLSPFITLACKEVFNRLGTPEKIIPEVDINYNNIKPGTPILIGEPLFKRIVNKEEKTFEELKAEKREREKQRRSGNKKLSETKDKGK

| pIC50 (MetRS (T. brucei)) | pIC50 (MetRS (C. parvum)) | pEC50 (T. brucei) | MIC [1] | pEC50 (T. cruzi; Trypanosoma cruzi) | pEC50 (T. cruzi) | (F) S. aureus (ATCC 29213) MIC [1] | Structure (SMILES) |
| --- | --- | --- | --- | --- | --- | --- | --- |
| 6.72 | < 6.00 | 6.71 |  |  |  |  | Clc1cc(Cl)cc(-c2cccc3nc(Cc4nc5nc(Cl)ccc5[nH]4)cn23)c1 [Compound 2130, 2-({5-chloro-1H-imidazo[4,5-b]pyridin-2-yl}methyl)-5-(3,5-dichlorophenyl)-imidazo[1,2-a]pyridine] |
|  |  | < 5.70 | > 2 µg/mL |  |  |  | COc1cc(Cl)c(-c2cccc3nc(Nc4nc5nc(F)ccc5[nH]4)cn23)cc1OC [Compound 2267, 5-(2-chloro-4,5-dimethoxyphenyl)—N-{5-fluoro-1H-imidazo[4,5-b]pyridin-2-yl}imidazo[1,2-a]pyridin-2-amine] |
| > 7.40 | 7.02 | 6.09 |  |  |  |  | CCn1c(Cc2ccc(Cl)cc2Cl)cn(C(C)c2nc3nc(F)ccc3[nH]2)c1=O (stereo not shown) [Compound 2143, 4-[(2,4-dichlorophenyl)methyl]-3-ethyl-1-(1-{5-fluoro-1H-imidazo[4,5-b]pyridin-2-yl}ethyl)-2,3-dihydro-1H-imidazol-2-one] |
| 5.89 | < 6.00 | < 5.70 |  |  |  |  | OCCNc1nc(Cc2ccc(Cl)cc2Cl)cn1Cc1nc2ccc(Cl)cc2[nH]1 [Compound 2196, 2-({1-[(6-chloro-1H-1,3-benzodiazol-2-yl)methyl]-4-[(2,4-dichlorophenyl)methyl]-1H-imidazol-2-yl}amino)ethan-1-ol] |
| 6.94 | 6.06 | 5.25 |  |  |  |  | COc1ccc(-n2ccc(=O)c3cc(F)c(Cc4nc5nc(Cl)ccc5[nH]4)cc32)c(Cl)c1 [Compound 2178, 7-((5-chloro-1H-imidazo[4,5-b]pyridin-2-yl)methyl)-1-(2-chloro-4-methoxyphenyl)-6-fluoroquinolin-4(1H)-one] |
| 6.69 | 6.30 | < 5.70 |  |  |  |  | COc1ccc(-c2cccc3c2CN(Cc2nc4nc(F)ccc4[nH]2)CC3)c(Cl)c1 [Compound 2167, 8-(2-chloro-4-methoxyphenyl)-2-((5-fluoro-1H-imidazo[4,5-b]pyridin-2-yl)methyl)-1,2,3,4-tetrahydroisoquinoline] |
| > 7.40 | 6.21 | 6.44 |  |  |  |  | COc1ccc(-c2cccn3c(S(C)(=O)=O)c(Cc4nc5nc(Cl)ccc5[nH]4)nc23)c(Cl)c1 [Compound 2151, 2-({5-chloro-1H-imidazo[4,5-b]pyridin-2-yl}methyl)-8-(2-chloro-4-methoxyphenyl)-3-methanesulfonylimidazo[1,2-a]pyridine] |
| 7.22 | 6.00 | < 5.70 |  |  |  |  | COc1ccc(-c2cccn3cc(Cc4nc5nc(F)ccc5[nH]4)nc23)c(Cl)c1 [Compound 2148, 8-(2-chloro-4-methoxyphenyl)-2-({5-fluoro-1H-imidazo[4,5-b]pyridin-2-yl}methyl)imidazo[1,2-a]pyridine] |
| > 7.40 | 6.97 | < 6.70 |  |  |  |  | Clc1ccc(Cc2cn(Cc3nc4nc(Cl)ccc4[nH]3)c(SCc3ccccn3)n2)c(Cl)c1 [Compound 2157, 2-({[1-({5-chloro-1H-imidazo[4,5-b]pyridin-2-yl}methyl)-4-[(2,4-dichlorophenyl)methyl]-1H-imidazol-2-yl]sulfanyl}methyl)pyridine] |
|  |  |  | 0.422 µg/mL (≈ 0.934 µM) | 7.49 | 7.38 |  | COc1ccc(Cc2cn(Cc3nc4nc(F)ccc4[nH]3)c(=O)n2CC(F)F)c(Cl)c1 [Compound 2259, 4-[(2-chloro-4-methoxyphenyl)methyl]-3-(2,2-difluoroethyl)-1-({5-fluoro-1H-imidazo[4,5-b]pyridin-2-yl}methyl)-2,3-dihydro-1H-imidazol-2-one] |
| > 7.40 | 7.04 | 6.76 |  |  |  |  | COc1ccc(-c2cccc3nc(Cc4nc5nc(Cl)ccc5[nH]4)oc23)c(Cl)c1 [Compound 2162, 2-({5-chloro-1H-imidazo[4,5-b]pyridin-2-yl}methyl)-7-(2-chloro-4-methoxyphenyl)-1,3-benzoxazole] |
| > 7.40 | 6.63 | 6.59 |  |  |  |  | CC(=O)Nc1nc(Cc2ccc(Cl)cc2Cl)cn1Cc1nc2ccc(Cl)cc2[nH]1 [Compound 2193, N-{1-[(6-chloro-1H-1,3-benzodiazol-2-yl)methyl]-4-[(2,4-dichlorophenyl)methyl]-1H-imidazol-2-yl}acetamide] |
| 7.20 | < 6.00 | < 5.70 |  |  |  |  | Fc1ccc2[nH]c(Cc3cn4c(-c5ccc(C(F)(F)F)cc5Cl)cccc4n3)nc2n1 [Compound 2127, 5-[2-chloro-4-(trifluoromethyl)phenyl]-2-({5-fluoro-1H-imidazo[4,5-b]pyridin-2-yl}methyl)imidazo[1,2-a]pyridine] |
| > 7.40 | 7.12 | 6.74 |  |  |  |  | COc1ccc(-c2ccc(N)c3nc(Cc4nc5cc(Cl)ccc5[nH]4)cn23)c(Cl)c1 [Compound 2179, 2-[(6-chloro-1H-1,3-benzodiazol-2-yl)methyl]-5-(2-chloro-4-methoxyphenyl)imidazo[1,2-a]pyridin-8-amine] |
| > 7.40 | 6.33 | 6.05 |  |  |  |  | COc1ccc(-c2cccn3c(SC)c(Cc4nc5nc(Cl)ccc5[nH]4)nc23)c(Cl)c1 [Compound 2150, 2-({5-chloro-1H-imidazo[4,5-b]pyridin-2-yl}methyl)-8-(2-chloro-4-methoxyphenyl)-3-(methylsulfanyl)imidazo[1,2-a]pyridine] |
| 7.35 | < 6.00 | < 5.70 |  |  |  |  | COc1ccc(-c2cccn3cc(Cc4nc5nc(Cl)ccc5[nH]4)nc23)c(Cl)c1 [Compound 2149, 2-({5-chloro-1H-imidazo[4,5-b]pyridin-2-yl}methyl)-8-(2-chloro-4-methoxyphenyl)imidazo[1,2-a]pyridine] |
| 7.39 | 6.32 | 5.87 |  |  |  |  | CCn1c(Cc2ccc(Cl)cc2Cl)cn(CCc2nc3ccc(F)nc3[nH]2)c1=O [Compound 2121, 4-[(2,4-dichlorophenyl)methyl]-3-ethyl-1-(2-{5-fluoro-1H-imidazo[4,5-b]pyridin-2-yl}ethyl)-2,3-dihydro-1H-imidazol-2-one] |
|  |  | 6.73 | 0.69 µg/mL (≈ 1.55 µM) |  |  | 0.345 µg/mL | Oc1cc(-c2cccc3nc(Cc4nc5nc(Cl)ccc5[nH]4)cn23)c(Cl)cc1Cl [Compound 2268, 2,4-dichloro-5-[2-({5-chloro-1H-imidazo[4,5-b]pyridin-2-yl}methyl)imidazo[1,2-a]pyridin-5-yl]phenol] |
|  |  | < 5.70 |  |  |  |  | CCn1c(Cc2ccc(OC)cc2Cl)cn(Cc2nc3cnc(Cl)nc3[nH]2)c1=O [Compound 2286, 4-[(2-chloro-4-methoxyphenyl)methyl]-1-[(2-chloro-7H-purin-8-yl)methyl]-3-ethyl-2,3-dihydro-1H-imidazol-2-one] |
|  |  | 6.99 | 1.77 µg/mL (≈ 3.74 µM) |  |  | 1.44 µg/mL | CCOc1cc(-c2cccc3nc(Cc4nc5nc(Cl)ccc5[nH]4)cn23)c(Cl)cc1Cl [Compound 2269, 2-({5-chloro-1H-imidazo[4,5-b]pyridin-2-yl}methyl)-5-(2,4-dichloro-5-ethoxyphenyl)imidazo[1,2-a]pyridine] |
|  |  | > 9.04 |  |  |  |  | CCn1c(Cc2cc(OC)c(OC)cc2Cl)cn(Cc2nc3nc(Cl)ccc3[nH]2)c1=O [Compound 2275, 1-({5-chloro-1H-imidazo[4,5-b]pyridin-2-yl}methyl)-4-[(2-chloro-4,5-dimethoxyphenyl)methyl]-3-ethyl-2,3-dihydro-1H-imidazol-2-one] |
